23 molecules from patent US10828301B2, “2,4-pyrimidinediamine compounds and their uses” (Rigel Pharmaceuticals, Inc, priority 2002, dated 2020) can be followed below.

The subject of test [1] is cultured human mast cells (CHMC). The test is described as follows: CHMC low cell density IgE activation: tryptase and LTC4 assays. In kind it is cell-based. The conditions noted are these: Low Density CHMC, anti-IgE activation, tryptase readout, read-out: CHMC anti-IgE Tryptase. How it is done:
Pellet CHMC cells (980 rpm, 10 min) and resuspend in pre-warmed MT. Add 65 ul of cells to each 96-well plate. Depending on the degranulation activity for each particular CHMC donor, load 1000-1500 cells/well. Mix four times followed by a 1 hr incubation at 37° C. […] Stimulate cells by adding 25 ul of 6× anti-IgE solution to the appropriate plates. Add 25 ul MT to un-stimulated control wells. Mix twice following addition of the anti-IgE. Incubate at 37° C. for 30 minutes. […] Spin plates at 1000 rpm for 10 min to pellet cells. Transfer 25 ul of supernatant to a 96-well black bottom plate and add 100 ul of freshly diluted tryptase substrate solution to each well. Incubate plates at room temperature for 30 min.
Leukotriene C4 (LTC4) is also quantified using an ELISA kit on appropriately diluted supernatant samples (determined empirically for each donor cell population so that the sample measurement falls within the standard curve) following the supplier's instructions.

Test [2] shares this test system. The experiment in a line: CHMC low cell density ionomycin activation: tryptase assay. The class given is cell-based. The conditions noted are these: Low Density CHMC, ionomycin activation, tryptase readout, read-out: CHMC Ionomycin Tryptase.

pIC50: −log10 of the molar value.

Turning to `Fc1cnc(NCCc2ccccc2)nc1Nc1ccc2c(c1)OCCO2` (racemic) [Compound R908697, (±)-N4-(3,4-Ethylenedioxyphenyl)-5-fluoro-N2-(2-phenylethyl)-2,4-pyrimidinediamine], the pIC50 was less than 5.00 in test [1] (Homo sapiens, Mast cell) and less than 5.00 in test [2] (Homo sapiens, Mast cell).
On to `CNC(=O)COc1cccc(Nc2ncc(F)c(Nc3ccc4c(c3)C(O)CCC4)n2)c1` (racemic) [Compound R926949, 5-Fluoro-N4-(1,2,3,4-tetrahydro-1-hydroxynaphthalen-7-yl)-N2-[3-[(N-methylamino)carbonylmethyleneoxy]phenyl]-2,4-pyrimidinediamine], for which the pIC50 in test [1] is 7.05; in test [2], less than 5.00.
In the case of `COC(=O)C1Cc2cc(Nc3ncc(F)c(Nc4ccc(Cl)cc4)n3)ccc2O1` (racemic) [Compound R927024, (±)-N4-(4-Chlorophenyl)-N2-(2,3-dihydro-2-methoxycarbonylbenzofuran-5-yl)-5-fluoro-2,4-pyrimidinediamine], the pIC50 is 6.49 in test [1] (Homo sapiens, Mast cell) and 4.00 in test [2] (Homo sapiens, Mast cell).
In the case of `COC(=O)C1Cc2cc(Nc3ncc(F)c(Nc4ccc(F)c(F)c4)n3)ccc2O1` (racemic) [Compound R927030, (±)-N4-(3,4-Difluorophenyl)-N2-(2,3-dihydro-2-methoxycarbonylbenzofuran-5-yl)-5-fluoro-2,4-pyrimidinediamine], the pIC50 in test [1] (Homo sapiens, Mast cell) was 6.59; in test [2] (Homo sapiens, Mast cell), less than 5.00.
On the same counts, the results for `COC(=O)C1Cc2cc(Nc3ncc(F)c(Nc4ccc(Cl)c(Cl)c4)n3)ccc2O1` (racemic) [Compound R927031, (±)-N4-(3,4-Dichlorophenyl)-N2-(2,3-dihydro-2-methoxycarbonylbenzofuran-5-yl)-5-fluoro-2,4-pyrimidinediamine] are 6.67 and 4.00.
With `CNC(=O)C1Cc2cc(Nc3ncc(F)c(Nc4ccc(F)c(F)c4)n3)ccc2O1` (racemic) [Compound R927035, (±)-N4-(3,4-Difluorophenyl)-5-fluoro-N2-[2,3-dihydro-2-(N-methylamino)carbonylbenzofuran-5-yl]-2,4-pyrimidinediamine], the pIC50 in test [1] (Homo sapiens, Mast cell) was 6.23; in test [2] (Homo sapiens, Mast cell), less than 5.00.
As for `CNC(=O)C1Cc2cc(Nc3ncc(F)c(Nc4ccc(Cl)c(Cl)c4)n3)ccc2O1` (racemic) [Compound R927037, (±)-N4-(3,4-Dichlorophenyl)-N2-[2,3-dihydro-2-(N-methylamino)carbonylbenzofuran-5-yl]-5-fluoro-2,4-pyrimidinediamine], the pIC50 in test [1] (Homo sapiens, Mast cell) was 6.63; in test [2] (Homo sapiens, Mast cell), less than 5.00.
As to `CNC(=O)C1Cc2cc(Nc3ncc(F)c(Nc4ccc(OC)nc4OC)n3)ccc2O1` (racemic) [Compound R927038, (±)-N4-(2,6-Dimethoxypyridin-3-yl)-N2-[2,3-dihydro-2-(N-methylamino)carbonylbenzofuran-5-yl]-5-fluoro-2,4-pyrimidinediamine], the pIC50 in test [1] (Homo sapiens, Mast cell) was 5.98; in test [2] (Homo sapiens, Mast cell), less than 5.00.
On the same counts, the results for `CC(Nc1nc(Nc2cccc(O)c2)ncc1F)c1ccc(F)cc1` (racemic) [Compound R935021, (±)-5-Fluoro-N4-[1-(4-fluorophenyl)ethyl]-N2-(3-hydroxyphenyl)-2,4-pyrimidinediamine] are less than 5.00 and less than 5.00.
On the same counts, the results for `CC(Nc1nc(Nc2cccc(O)c2)ncc1Br)c1ccc(F)cc1` (racemic) [Compound R935023, (±)-5-Bromo-N4-[1-(4-fluorophenyl)ethyl]-N2-(3-hydroxyphenyl)-2,4-pyrimidinediamine] are less than 5.00 and less than 5.00.
On to `O=C1COc2cc(Nc3ncc(F)c(Nc4cccc(O)c4)n3)ccc2N1` [Compound R908699, N2-(1,4-Benzoxazin-3-on-7-yl)-5-fluoro-N4-(3-hydroxyphenyl)-2,4-pyrimidinediamine], for which the pIC50 in test [1] (Homo sapiens, Mast cell) was 6.66; in test [2] (Homo sapiens, Mast cell), less than 5.00.
On the same counts, the results for `O=C1COc2ccc(Nc3nc(Nc4cccc(O)c4)ncc3F)cc2N1` [Compound R908702, N4-(1,4-Benzoxazine-3-on-6-yl)-5-fluoro-N2-(3-hydroxyphenyl)-2,4-pyrimidinediamine] are 6.98 and 5.13.
In the same order, the values of `CN1C(=O)COc2ccc(Nc3ncc(F)c(Nc4cccc(O)c4)n3)cc21` [Compound R908703, 5-Fluoro-N4-(3-hydroxyphenyl)-N2-(N-methyl-1,4-benzoxazine-3-on-6-yl)-2,4-pyrimidinediamine] are 6.20 and less than 5.00.
Regarding `CN1C=COc2cc(Nc3ncc(F)c(Nc4cccc(O)c4)n3)ccc21` [Compound R908704, 5-Fluoro-N4-(3-hydroxyphenyl)-N2-(N-methyl-1,4-benzoxazin-7-yl)-2,4-pyrimidinediamine], the pIC50 in test [1] (Homo sapiens, Mast cell) was 6.29; in test [2] (Homo sapiens, Mast cell), less than 5.00.
`Oc1cccc(Nc2nc(Nc3ccc4c(c3)OCC=N4)ncc2F)c1` [Compound R908706, N2-(1,4-Benzoxazin-7-yl)-5-fluoro-N4-(3-hydroxyphenyl)-2,4-pyrimidinediamine]: the pIC50 in test [1] (Homo sapiens, Mast cell) is 6.35; in test [2] (Homo sapiens, Mast cell), less than 5.00.
For the molecule `CN1C=COc2cc(Nc3nc(Nc4cccc(O)c4)ncc3F)ccc21` [Compound R908707, 5-Fluoro-N2-(3-hydroxyphenyl)-N4-(N-methyl-1,4-benzoxazin-7-yl)-2,4-pyrimidinediamine], the pIC50 in test [1] (Homo sapiens, Mast cell) is 5.74; in test [2] (Homo sapiens, Mast cell) it was less than 5.00.
Turning to `CN1C=COc2ccc(Nc3nc(Nc4cccc(O)c4)ncc3F)cc21` [Compound R908710, 5-Fluoro-N2-(3-hydroxyphenyl)-N4-(N-methyl-1,4-benzoxazin-6-yl)-2,4-pyrimidinediamine], the pIC50 in test [1] (Homo sapiens, Mast cell) is 5.74; in test [2] (Homo sapiens, Mast cell), 4.00.
On the same counts, the results for `Oc1cccc(Nc2ncc(F)c(Nc3ccc4c(c3)N=CCO4)n2)c1` [Compound R909243, N4-(1,4-benzoxazin-6-yl)-5-fluoro-N2-(3-hydroxyphenyl)-2,4-pyrimidinediamine] are 6.58 and less than 5.00.
Regarding `COc1cc(Nc2ncc(F)c(Nc3ccc4c(c3)N=CCO4)n2)cc(OC)c1` [Compound R909245, N4-(1,4-Benzoxazin-6-yl)-N2-(3,5-dimethoxyphenyl)-5-fluoro-2,4-pyrimidinediamine], the pIC50 in test [1] (Homo sapiens, Mast cell) is 6.59; in test [2] (Homo sapiens, Mast cell), 5.20.
In the same order, the values of `CC(C)(C)c1cccc(Nc2ncc(F)c(Nc3ccc4c(c3)N=CCO4)n2)c1` [Compound R909246, N4-(1,4-Benzoxazin-6-yl)-N2-(3-tert-butylphenyl)-5-fluoro-2,4-pyrimidinediamine] are 6.77 and less than 5.00.
Take `OCCOc1ccc(Nc2ncc(F)c(Nc3ccc4c(c3)N=CCO4)n2)cc1` [Compound R909248, N4-(1,4-Benzoxazin-6-yl)-5-fluoro-N2-[4-(2-hydroxyethyl)oxyphenyl]-2,4-pyrimidinediamine]: the pIC50 was 5.45 in test [1] (Homo sapiens, Mast cell) and less than 5.00 in test [2] (Homo sapiens, Mast cell).
Take `CNC(=O)CNc1cccc(Nc2ncc(F)c(Nc3cccc(O)c3)n2)c1` [Compound R950218]: in test [2], the pIC50 was less than 5.00.
Turning to `COC(=O)c1cc(Nc2ncc(F)c(Nc3ccc(OC(F)(F)F)c(C(=O)OC)c3)n2)ccc1OC(F)(F)F` [Compound R950391, N2,N4-Bis(3-methoxycarbonyl-4-trifluoromethoxyphenyl)-5-fluoro-2,4-pyrimidinediamine], the pIC50 in test [2] (Homo sapiens, Mast cell) is less than 5.00.
